Consider five compounds from PMC5289073, “Stable expression and functional characterisation of the diamondback moth ryanodine receptor G4946E variant conferring resistance to diamide insecticides” (Scientific Reports, 2015).

Read-outs that look alike come from different tables or passages of the source.

The target of test [1] is T1, P. xylostella WT RyR (Plutella xylostella, UniProt K7W8M2). The experiment in a line: Calcium fluorescence (Fluo8, FLIPR Tetra), Sf9 cells stably expressing wild-type RyR (Sf9-wtRyR). Type of test: cell-based. Conditions: for Intracellular calcium signal over time (Fluo8): caffeine 30 mM, flubendiamide-sulfoxide 1 μM, chlorantraniliprole 1 μM. The method, then:
Single Sf9 cell clones stably expressing either the wild-type (Sf9-wtRyR) or the G4946E (Sf9-mRyR) RyR channel were isolated after a few cycles of clonal selection. […] This may be explained by compensatory calcium re-uptake mechanisms of the sarco-/endoplasmic reticulum, in particular the Ca^2+-ATPase (SERCA)[32][33].
Fluorescence of the calcium-Fluo8 complex was measured as a function of time.
Measurements of the integrated calcium signals as a function of the diamide concentration, gave characteristic dose-response curves, from which apparent EC50 concentrations for flubendiamide-sulfoxide and chlorantraniliprole were calculated (Fig. 6). These values represent the effector concentration causing half-maximal integrated calcium signals in the cells. […] It should be noted that the EC50 values are not only determined by the compound’s affinities to the RyR, but also by their availability at the intracellular target site as influenced by their physico-chemical properties.
(§1) Figure 6 Calcium transients in Sf9 cells stably expressing either the P. xylostella WT (●) or the modified (G4946E) RyR (▲) as a function of the diamide concentration. Calcium-dye (Fluo8) fluorescence was measured after (a) flubendiamide-sulfoxide or (b) chlorantraniliprole application as a function of time. The integrated fluorescence signals were plotted against the logarithm of the effector concentration. Data fitting and EC50 calculations were performed with the SigmaPlot v13 software package.
(§2) Cells were transfected as described above and subjected to selection with 300 μg ml^−1 zeocin by the dilution method, essentially as described in the manufacturer´s manual (Invitrogen). After a few successive rounds of clonal selection, zeocin-resistant cell clones were tested for functional RyR expression by calcium fluorescence measurements.
(§3) Calcium-dye fluorescence was measured with Fluo8-loaded cells on the FLIPR Tetra instrument (Molecular Devices) in the 384 microtiter plate format. 1.5 × 10[4] cells per well were treated with variable concentrations of effector compounds in a total volume of 80 μl Tyrode´s buffer containing 0.1% DMSO (final concentration) essentially following the established protocols provided with the Fluo8 No-Wash calcium assay kit (Molecular Devices). Excitation and emission wavelengths were set at 490 nm and 525 nm, respectively.

The test system of test [2] is P. xylostella RyR (thoracic microsomal membranes). Conditions: Philippine strain versus susceptible strain; cited from earlier work.
For another test, the system named is Plutella xylostella. The note with it: cited from earlier work; for Resistance compared to susceptible strains: larvae collected from the Philippines and Thailand in 2012.
In test [3] the target is T2, P. xylostella G4946E RyR (Plutella xylostella, UniProt K7W8M2, G4900E). Briefly: Calcium fluorescence (Fluo8, FLIPR Tetra), Sf9 cells stably expressing G4946E RyR (Sf9-mRyR). Type of test: cell-based. The method, then: as §1
The efficacy of both diamides was reduced dramatically in the Sf9-mRyR cells expressing the G4946E RyR.
as §2, §3

A further test has as its system Adoxophyes honmai. More on the design: method as in ref 40 = [40]; Uchiyama T. & Ozawa A. Rapid development of resistance to diamide insecticides in the smaller tea tortrix, Adoxophyes honmai (Lepidoptera: Tortricidae), in the tea fields of Shizuoka Prefecture, Japan. The note with it: cited from earlier work.
The test system of another test is Tuta absoluta. The arrangement: method as in ref 39 = [39]; Roditakis E. et al. First report of Tuta absoluta resistance to diamide insecticides . J Pest Sci. 88 , 9 – 16 ( 2015 ). The note with it: T. absoluta population from Sicily (Italy), up; cited from earlier work.
Test [4] relates to P. xylostella ROTH WT RyR. Briefly: Fura-2 AM calcium release, Sf9 cells transiently expressing ROTH WT RyR. Type of test: cell-based, Plutella xylostella. The note with it: 72 h post transfection, caffeine 30 mM, flubendiamide sulfoxide 30 μM, flubendiamide 10 μM. On the procedure:
(§4) Figure 3 Fluorescence ratios measured over time in a single calcium release experiment using Fura-2 AM in Sf9 cells transiently expressing (a) WT construct and (b) the G4946E variant 72 h post transfection.
(§5) Sf9 cells (Life technologies) were maintained in Sf-900 II SFM (Gibco-life technologies) serum free media without antibiotic in 30 ml suspension cultures (shaking at 115 rpm) at a constant temperature of 27 °C. Cells used for transfection were seeded into 60 mm cell culture dishes (Corning®), at 2 × 10[6] cells per dish in 3 ml of Sf-900 II SFM, and left to attach for 1 h. Cells were transfected using 3 μg of plasmid DNA, 15 μl Cellfectin II reagent (Life technologies) and 5 μl PLUS™ enhancer reagent (Life technologies) per dish, following the manufacturer’s protocol.
(§6) Fura 2-AM dye (Life technologies, CA, USA) was used for monitoring calcium release in Sf9 cells transfected with the P. xylostella RyR. Approximately 2.5 × 10^5 of un-transfected SF9 cells were allowed to attach to Poly-L-lysine coated coverslips (Sigma, MA, USA) for 1 h and then transfected using Cellfectin™ II. 24 h, 48 h, 72 h and 96 h post transfection the cells were loaded with […] of Fura 2-AM calcium sensitive dye. Cells were left to incubate at 27 °C for 45–60 minutes, followed by 3 washes with 500 μl of fresh un-supplemented Sf-900 II medium. […]

Test [5] concerns the target T2, P. xylostella G4946E RyR. In kind it is cell-based. Conditions: 72 h post transfection, caffeine 30 mM, flubendiamide 10 μM. On the procedure: as §4, §5, §6
For test [6], the target named is rabbit skeletal muscle RyR. More on the design: method as in PMID 11220363. The note with it: native preparation of rabbit skeletal muscle RyR; cited from earlier work.
In another test the target is H. virescens RyR. The note with it: cited from earlier work.
The target in test [7] is T1, P. xylostella WT RyR. The experiment in a line: [3H] ryanodine binding, membranes of Sf9 cells transiently expressing ROTH WT RyR. On the procedure:
(§7) Apparent differences in Kd and Bmax with those reported in other studies could likely be explained by the different experimental conditions.
(§8) Figure 4 Tritium labelled ryanodine binding from Sf9 membrane preparations expressing P. xylostella WT and G4946E RyRs.
(§9) For membrane preparation, transfected cells were harvested 48 h post transfection using phosphate buffered saline (PBS), the cells counted and then re-suspended in a hypo-osmotic buffer (20 mM Tris, 1 mM EDTA pH 7.4) at a concentration of 2 × 10[6] cells per ml. The cells were then homogenised and centrifuged at 1,500 g for 15 min at 4 °C to remove cell debris. The supernatant was removed, centrifuged at 100,000 g for 1 h at 4 °C and the membrane pellet re-suspended in a 0.4 M sucrose, 20 mM HEPES solution (20 μl per 2 × 10[6] cells). Protein concentration was determined using Bradford reagent (Bio-Rad) following the manufacturer’s instructions, against Bovine Serum Albumin (BSA) standards.
(§10) Binding reactions were set up in a 96 well flat bottom microtiter plate in a total volume of 250 μl per well. […]

Test [8] addresses T2, P. xylostella G4946E RyR. The experiment in a line: [3H] ryanodine binding, membranes of Sf9 cells transiently expressing G4946E RyR. The method, then: as §7, §8, §9, §10

`Cn1c(=O)c2c(ncn2C)n(C)c1=O` [caffeine]: the “Intracellular calcium signal over time (Fluo8)” value at P. xylostella WT RyR [1] (Sf9-wtRyR) was “increased rapidly to the maximum in less than one minute after application and then decreased to baseline levels”.
By EC50 is commonly meant the concentration needed to bring the measured effect to its halfway point. As to `CNC(=O)c1cc(Cl)cc(C)c1NC(=O)c1cc(Br)nn1-c1ncccc1Cl` [chlorantraniliprole], the “Resistance ratio of EC50 for ryanodine binding stimulation” value in [2] is reported as 159 fold. For the same compound, the Resistance in the test on Plutella xylostella (field populations from China with G4946E) is 303–658 fold. For the same compound, the “Resistance compared to susceptible strains” value in the test with Plutella xylostella is given as “over 200 fold”. Further, the EC50 is 3720 nM at P. xylostella G4946E RyR [3] and 17 nM on P. xylostella WT RyR [1]. Besides, the “Loss of effect on the RyR channel with G4946E substitution versus WT” value on P. xylostella G4946E RyR [3] (G4946E versus WT, from EC50 values) is “roughly two orders of magnitude”. Also, the Resistance ratio in the test with Adoxophyes honmai was 77.2 fold. In addition, the Resistance level entry with Tuta absoluta was “up to 2,414 fold”. Besides, the “Intracellular calcium signal over time (Fluo8)” value on P. xylostella WT RyR [1] (Sf9-wtRyR) is “increased intracellular calcium concentrations that persisted”.
Regarding `Cc1cc(C(F)(C(F)(F)F)C(F)(F)F)ccc1NC(=O)c1cccc(I)c1C(=O)NC(C)(C)C[S+](C)[O-]` (centres unmarked) [flubendiamide sulfoxide], the “Calcium release response (Fura-2 fluorescence ratio)” value was “reversible activation of the calcium release” in [4] and “failed to induce any release of calcium” at P. xylostella G4946E RyR [5]. Further, the EC50 was greater than 20000 nM at P. xylostella G4946E RyR [3] (Sf9-mRyR, stable G4946E RyR, Fluo8, ± standard error printed, read-out: EC50 (half-maximal integrated calcium signal)) and 245 nM at P. xylostella WT RyR [1] (Sf9-wtRyR, stable WT RyR, Fluo8, ± standard error printed, read-out: EC50 (half-maximal integrated calcium signal)). Moreover, the “Intracellular calcium signal over time (Fluo8)” value at P. xylostella WT RyR [1] (Sf9-wtRyR) is given as “increased intracellular calcium concentrations that persisted”.
For the compound `Cc1cc(C(F)(C(F)(F)F)C(F)(F)F)ccc1NC(=O)c1cccc(I)c1C(=O)NC(C)(C)CS(C)(=O)=O` [flubendiamide], the entries for the “Calcium release response (Fura-2 fluorescence ratio)” value (in [4]; at P. xylostella G4946E RyR [5]) were “permanently increased Ca^2+ levels” and “did not show any calcium release”, respectively. The “Resistance ratio of EC50 for ryanodine binding stimulation” value in test [2] is on record as greater than 450 fold. Further, the “Resistance compared to susceptible strains” value in the test on Plutella xylostella was “over 200 fold”. Also, in the test with Adoxophyes honmai, the Resistance ratio is recorded as 105 fold. Also, in the test with Tuta absoluta, the Resistance level was ≤ 1,742 fold.
Usually Kd stands for the constant that tells how readily two partners part at equilibrium. `CC(C)[C@@]1(O)[C@@H](OC(=O)c2ccc[nH]2)[C@@]2(O)[C@@]3(C)C[C@]4(O)O[C@@]5([C@H](O)[C@@H](C)CC[C@]35O)[C@@]2(O)[C@@]14C` [ryanodine]: the Kd in test [6] was 2.04 ± 0.12 nM; on H. virescens RyR (H. virescens native membrane preparations, different study) it was 13.9 ± 3.8 nM; on H. virescens RyR (native preparation of H. virescens RyR), 3.82 ± 0.39 nM; at P. xylostella WT RyR [7] it was 12.9 ± 4.5 nM; at P. xylostella G4946E RyR [8] it was 14.7 ± 4.18 nM.
